Reference: paper PMC10607100, “Anticancer and Antiphytopathogenic Activity of Fluorinated Isatins and Their Water-Soluble Hydrazone Derivatives” (International Journal of Molecular Sciences, 2023)
Read-outs that look alike come from different tables or passages of the source.

Legend:
Format in all cases: cell-based
[1] = tested on: Xanthomonas campestris B-610; assay: Agar-well diffusion, bactericidal activity; conditions: Xanthomonas campestris
Protocol: Bacteria M. luteus, P. carotovorum subsp. carotovorum, P. atrosepticum, and P. fluorescens were grown in a meat–peptone medium (BP), and X. campestris was grown in the medium with glucose, yeast extract, and calcium carbonate (GYCa). Solid media contained Bacto agar (18 g/L); pH was adjusted to 7.2–7.4. […] For inoculum preparation, both fungal strains were initially grown on the agar GPY in Petri dishes and then transferred into the seed medium by punching out 5 mm of the agar plate culture with a self-designed cutter.
(§1) The antibacterial and antifungal activities of the compounds were explored using the agar-well diffusion method and the technique of mycelial radial growth inhibition. The method of diffusion in agar (measuring the diameter of growth inhibition zones) was used to determine the bactericidal activity. The 6-mm wells were made in agar medium (GYCa for Xanthomonas campestris or BP for other bacteria). Bacterial suspensions were distributed over the agar surface, and the tested compound’s solution (150 μL) was added to each well. The width of growth inhibition zones around the wells was determined after incubation for 36–40 h.

[2] = tested on: Phytophthora cactorum VKM F-985; assay: Mycelial radial growth inhibition; conditions: Phytophthora cactorum; for inhibition of growth at 1 µM: 1 nmol/mL; for inhibition of growth at 1 µM / inhibition of growth at 3 µM / inhibition of growth at 7 µM / inhibition of growth at 20 µM / inhibition of growth / inhibition of growth at 40 µM: read-out: Inhibition value, I (%); for inhibition of growth at 3 µM: 3 nmol/mL; for inhibition of growth at 7 µM: 7 nmol/mL; for inhibition of growth at 20 µM: 20 nmol/mL; for inhibition of growth: 27 nmol/mL; for inhibition of growth at 40 µM: 40 nmol/mL
Description: (§2) Plant pathogenic bacterial strains Micrococcus luteus B-109, Pectobacterium atrosepticum 1043, Pectobacterium carotovorum subsp. carotovorum MI, Pseudomonas fluorescens EL-2.1, and Xanthomonas campestris B-610 and the fungal strain Fusarium oxysporum IBPPM 543 were from the Collection of Rhizosphere Microorganisms, IBPPM RAS (WFCC no. 975, WDCM no. 1021) (CM IBPPM, http://collection.ibppm.ru). The pathogenic fungus Phytophthora cactorum VKM F-985, provided by the All-Russian Collection of Microorganisms (VKM) and deposited at the A.E. Favorsky Irkutsk Institute of Chemistry, SB RAS, was also used as a test organism. Bacteria M. luteus, P. carotovorum subsp. carotovorum, P. atrosepticum, and P. fluorescens were grown in a meat–peptone medium (BP), and X. campestris was grown in the medium with glucose, yeast extract, and calcium carbonate (GYCa). Solid media contained Bacto agar (18 g/L); pH was adjusted to 7.2–7.4. All bacterial cultures were grown at 28 °C. The mycelial cultures of F. oxysporum and P. cactorum were grown on a glucose–peptone–yeast (GPY) nutrient medium at 27 °C. For inoculum preparation, both fungal strains were initially grown on the agar GPY in Petri dishes and then transferred into the seed medium by punching out 5 mm of the agar plate culture with a self-designed cutter.
(§3) For the fungicidal activity analysis, radial growth (colony diameters) of the fungi on a solid medium in the absence and in the presence of the compounds 5a–e and 7a–c solutions at various concentrations were compared. The method consisted of the following: A sterile GPY agar medium (20.0 mL), which was melted and then allowed to cool to approximately 60 °C, was mixed with the precisely measured volumes of the solutions under question and poured into a sterile Petri dish (90 mm i.d.). After the solidification of GPY agar, the media were inoculated by the fungus using 10-day-old cultures of F. oxysporum or P. cactorum. The inoculation was conducted by transferring a 5-mm (i.d.) GPY-agar block covered with mycelium to the center of the Petri dish, followed by incubation in a thermostat at 27 °C. The fungicidal effect was scored by the size of the mycelium colony on a Petri dish compared to the control without fungicidal admixtures to GPY agar. Each treatment was performed in at least four replicates in two independent experiments. The observation period ended when the control Petri dish was filled with mycelium (usually after 12 days). […] The solutions of the compounds were prepared with a concentration of 2 mmol/L (stock solution). For comparison, test compounds were also commonly applied as disinfecting agents, and antibiotics were used as a positive control.

[3] = tested on: Fusarium oxysporum IBPPM 543; assay: Mycelial radial growth inhibition; conditions: Fusarium oxysporum; for inhibition of growth at 1 µM: 1 nmol/mL; for inhibition of growth at 1 µM / inhibition of growth at 5 µM / inhibition of growth at 30 µM / inhibition of growth at 40 µM: read-out: Inhibition value, I (%); for inhibition of growth at 5 µM: 5 nmol/mL; for inhibition of growth at 30 µM: 30 nmol/mL; for inhibition of growth at 40 µM: 40 nmol/mL
Description: as §2, §3

[4] = tested on: Pectobacterium carotovorum subsp. carotovorum MI; assay: Agar-well diffusion, bactericidal activity; conditions: Pectobacterium carotovorum, 2 mM/L
Description: as §2, §1

[5] = tested on: Pectobacterium atrosepticum 1043; assay: Agar-well diffusion, bactericidal activity; conditions: Pectobacterium atrosepticum, 1043, 2 mM/L
Description: as §2, §1

[6] = tested on: Pseudomonas fluorescens EL-2.1; assay: Agar-well diffusion, bactericidal activity; conditions: Pseudomonas fluorescens, EL2.1, 2 mM/L
Description: as §2, §1

Micrococcus luteus B-109 = assay: Agar-well diffusion, bactericidal activity; conditions: Micrococcus luteus
Description: as §2, §1

[7] = tested on: five representative phytopathogens; assay: Agar-well diffusion, bactericidal activity over the panel of phytopathogens; conditions: 36 h, 2 mM solutions; dependent on the test system used; read-out: inhibition zone width (mm), range over the test systems
Description: as §2, §1

[8] = 120 h, age of the fungus 5 days
[9] = 168 h, age of the fungus 7 days
[10] = 216 h, age of the fungus 9 days
[11] = IBPPM543, 72 h, age of the fungus 3 days
[12] = IBPPM543, 120 h, age of the fungus 5 days
[13] = IBPPM543, 168 h, age of the fungus 7 days
[14] = IBPPM543, 216 h, age of the fungus 9 days
[15] = Table S3, read-out: Inhibition zone width (mm), not less

Question: What does the source list for `Cc1ccc[n+](CC(=O)N/N=C2\C(=O)N(Cc3cccc(C(F)(F)F)c3)c3ccccc32)c1C` [Compound 7c]?
Answer: zone of inhibition at 2000 µM ([1]; B610, 2 mM/L, average of 3 experiments, read-out: width of the inhibition zone (mm), X. campestris): 9 mm; zone of inhibition at 2000 µM ([1]; B610, Table S3, 2 mM/L, read-out: Inhibition zone width (mm), not less): ≥ 9 mm; inhibition of growth at 1 µM ([2]; 72 h, age of the fungus 3 days): 10%; inhibition of growth at 3 µM ([2]; 72 h, age of the fungus 3 days): 20%; inhibition of growth at 7 µM ([2]; 72 h, age of the fungus 3 days): 26%; inhibition of growth at 20 µM ([2]; 72 h, age of the fungus 3 days): 32%; inhibition of growth ([2]; 72 h, age of the fungus 3 days): 48%; inhibition of growth at 40 µM ([2]; 72 h, age of the fungus 3 days): 55%; EC50 ([2]; 120 h, day 5, read-out: EC50, µg/mL at Day 5, P. cactorum): 20 µg/mL; inhibition of growth at 1 µM [2, 8]: 11%; inhibition of growth at 3 µM [2, 8]: 18%; inhibition of growth at 7 µM [2, 8]: 22%; inhibition of growth at 20 µM [2, 8]: 27%; inhibition of growth [2, 8]: 36%; inhibition of growth at 40 µM [2, 8]: 56%; inhibition of growth at 1 µM [2, 9]: 12%; inhibition of growth at 3 µM [2, 9]: 17%; inhibition of growth at 7 µM [2, 9]: 22%; inhibition of growth at 20 µM [2, 9]: 25%; inhibition of growth [2, 9]: 33%; inhibition of growth at 40 µM [2, 9]: 44%; inhibition of growth at 1 µM [2, 10]: 11%; inhibition of growth at 3 µM [2, 10]: 16%; inhibition of growth at 20 µM [2, 10]: 9%; inhibition of growth [2, 10]: 28%; inhibition of growth at 40 µM [2, 10]: 41%; inhibition of growth at 1 µM [3, 11]: 22%; inhibition of growth at 5 µM [3, 11]: 36%; inhibition of growth at 30 µM [3, 11]: 45%; inhibition of growth at 40 µM [3, 11]: 57%; EC50 ([3]; IBPPM543, 120 h, day 5, read-out: EC50, µg/mL at Day 5, F. oxysporum): 13.9 µg/mL; inhibition of growth at 1 µM [3, 12]: 21%; inhibition of growth at 5 µM [3, 12]: 35%; inhibition of growth at 30 µM [3, 12]: 41%; inhibition of growth at 40 µM [3, 12]: 63%; inhibition of growth at 1 µM [3, 13]: 15%; inhibition of growth at 5 µM [3, 13]: 27%; inhibition of growth at 30 µM [3, 13]: 44%; inhibition of growth at 40 µM [3, 13]: 66%; inhibition of growth at 1 µM [3, 14]: 10%; inhibition of growth at 5 µM [3, 14]: 22%; inhibition of growth at 30 µM [3, 14]: 36%; inhibition of growth at 40 µM [3, 14]: 64%; zone of inhibition at 2000 µM ([4]; average of 3 experiments, read-out: width of the inhibition zone (mm), P. carotovorum subsp. carotovorum): 7 mm; zone of inhibition at 2000 µM [4, 15]: ≥ 7 mm; zone of inhibition at 2000 µM ([5]; average of 3 experiments, read-out: width of the inhibition zone (mm), P. atrosepticum): 6 mm; zone of inhibition at 2000 µM [5, 15]: ≥ 6 mm; zone of inhibition at 2000 µM ([6]; average of 3 experiments, read-out: width of the inhibition zone (mm), Ps. fluorescens): 7 mm; zone of inhibition at 2000 µM [6, 15]: ≥ 7 mm; zone of inhibition at 2000 µM (Micrococcus luteus B-109; B109, 2 mM/L, average of 3 experiments, read-out: width of the inhibition zone (mm), M. luteus): 7 mm; zone of inhibition at 2000 µM (Micrococcus luteus B-109; B109, Table S3, 2 mM/L, read-out: Inhibition zone width (mm), not less): ≥ 7 mm; zone of inhibition at 2000 µM [7]: 6 to 9 mm
